Patent publication US10670605B2, “Cysteine reactive probes and uses thereof” (The Scripps Research Institute, priority 2015, dated 2020)
Where a name gives a salt, the structure may show the parent alone. Each block holds one compound with its values, some of them ahead of it.

Legend:
PKCθ C14/C17 = target: T1, PKCθ C14/C17 (Homo sapiens, UniProt Q04759); test: isoTOP-ABPP of compound-treated primary human T cells; format: cell-based; conditions: for R value (DMSO/DMF): PRKCQ C14 (Q04759)
T1 construct: endogenous in cells; host or cells: primary human T cells
Method: Cells were lysed by sonication and diluted to a concentration of 2 mg protein/mL. Protein concentrations were measured with the Bio-Rad DC™ protein assay reagents A and B (5000113, 5000114; Bio-Rad). 500 μL of proteome sample was treated with 100 μM of IA-alkyne probe using […] of a 10 mM DMSO stock. The labeling reactions were incubated at room temperature for 1 h upon which time the samples were conjugated to isotopically-labeled TEV-cleavable tags (TEV tags) by copper-catalyzed azide-alkyne cycloaddition (CuACC or ‘click chemistry’). 60 μL of heavy click chemistry reaction mixture was added to the DMSO-treated control sample and 60 μL of the light reaction mixture was added to the compound-treated sample. The click reaction mixture comprised TEV tags (10 μL of a 5 mM stock, light (fragment treated) or heavy (DMSO treated)), CuSO4 (10 μL of a 50 mM stock in water), and TBTA (30 μL of a 1.7 mM stock in 4:1 tBuOH:DMSO). To this was added TCEP (10 μL of a 50 mM stock). The reaction was performed for 1 h at room temperature.
The resulting pellets were resuspended in 500 μL of cold methanol by sonication and the heavy and light samples combined pairwise. Combined pellets were then washed with cold MeOH, after which the pellet was solubilized in PBS containing 1.2% SDS by sonication. The samples were heated at 90° C. for 5 min and subjected to streptavidin enrichment of probe-labeled proteins, sequential on-bead trypsin and TEV digestion, and liquid chromatography-tandem mass spectrometry (LC-MS/MS) according to the published isoTOP-ABPP protocols.
The quantification of heavy/light ratios (isoTOP-ABPP ratios, R values) was performed by in-house CIMAGE software using default parameters (3 MS1's per peak and signal to noise threshold of 2.5). Site-specific engagement of electrophilic compounds was assessed by blockade of IA-alkyne probe labeling. […] Overlapping peptides with the same labeled cysteine (for example, same local sequence around the labeled cysteines but different charge states, MudPIT segment numbers, or tryptic termini) were grouped together, and the median ratio from each group was recorded as the R value of the peptide for that run.

THAP11 C48 (Q96EK4) = THAP11 C48 (Q96EK4) (Homo sapiens, UniProt Q96EK4); test: Competitive isoTOP-ABPP in situ; format: cell-based; conditions: fragment 2 at 200 μM, MDA-MB-231 cells
IMPACT C195 (Q9P2X3) = IMPACT C195 (Q9P2X3) (Homo sapiens, UniProt Q9P2X3); test: Competitive isoTOP-ABPP in situ; format: cell-based; conditions: fragment 4 at 100 μM, MDA-MB-231 cells
IDH1 = target: T2, IDH1 (Homo sapiens, UniProt O75874); test: IDH1 NADP assay; format: biochemical
T2 construct: Full length cDNAs encoding for IDH1 (Open Biosystems, Clone ID: 3880331) and IMPDH2; His6 (C); made in house; host or cells: E. coli BL21(DE3)
Method: To 25 μL of this mixture was added 1 μL of the indicated compound (25× stock solution in DMSO) and the lysates were incubated for 1 h at room temperature in clear 96 well plates (Corning® Costar®). […] Absorbance was measured for 45 minutes and the relative activities were calculated from the change in absorbance for the linear portion of the curve.

T1 sequence (Q04759 whole entry): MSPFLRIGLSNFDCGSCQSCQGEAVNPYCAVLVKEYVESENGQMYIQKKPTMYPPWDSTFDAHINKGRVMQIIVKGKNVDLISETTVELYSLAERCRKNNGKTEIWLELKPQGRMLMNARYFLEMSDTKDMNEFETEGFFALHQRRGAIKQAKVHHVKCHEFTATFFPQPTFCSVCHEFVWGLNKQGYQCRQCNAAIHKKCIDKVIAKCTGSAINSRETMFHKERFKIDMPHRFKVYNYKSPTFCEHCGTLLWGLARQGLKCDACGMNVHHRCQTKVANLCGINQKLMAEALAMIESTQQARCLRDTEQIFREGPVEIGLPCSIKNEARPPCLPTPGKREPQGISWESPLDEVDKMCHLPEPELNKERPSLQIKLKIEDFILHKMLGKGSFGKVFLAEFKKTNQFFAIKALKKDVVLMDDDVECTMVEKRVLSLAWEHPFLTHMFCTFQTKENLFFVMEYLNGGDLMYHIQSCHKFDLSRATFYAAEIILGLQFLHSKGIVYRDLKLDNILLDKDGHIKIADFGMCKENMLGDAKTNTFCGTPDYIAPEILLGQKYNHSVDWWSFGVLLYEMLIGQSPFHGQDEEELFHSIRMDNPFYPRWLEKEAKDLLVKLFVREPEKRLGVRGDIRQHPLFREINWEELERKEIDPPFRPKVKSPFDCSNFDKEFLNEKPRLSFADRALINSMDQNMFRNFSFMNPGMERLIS
IMPACT C195 (Q9P2X3), sequence (Q9P2X3 whole entry, the tested form may be a part): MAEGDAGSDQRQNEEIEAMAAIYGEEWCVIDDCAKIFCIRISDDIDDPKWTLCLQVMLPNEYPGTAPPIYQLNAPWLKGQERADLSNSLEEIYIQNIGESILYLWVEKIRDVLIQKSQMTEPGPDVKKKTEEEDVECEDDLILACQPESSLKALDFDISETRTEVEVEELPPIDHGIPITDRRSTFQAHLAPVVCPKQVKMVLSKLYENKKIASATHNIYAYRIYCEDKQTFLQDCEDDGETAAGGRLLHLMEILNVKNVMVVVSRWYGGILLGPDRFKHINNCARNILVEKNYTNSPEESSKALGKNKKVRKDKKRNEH
THAP11 C48 (Q96EK4), sequence (Q96EK4 whole entry, the tested form may be a part): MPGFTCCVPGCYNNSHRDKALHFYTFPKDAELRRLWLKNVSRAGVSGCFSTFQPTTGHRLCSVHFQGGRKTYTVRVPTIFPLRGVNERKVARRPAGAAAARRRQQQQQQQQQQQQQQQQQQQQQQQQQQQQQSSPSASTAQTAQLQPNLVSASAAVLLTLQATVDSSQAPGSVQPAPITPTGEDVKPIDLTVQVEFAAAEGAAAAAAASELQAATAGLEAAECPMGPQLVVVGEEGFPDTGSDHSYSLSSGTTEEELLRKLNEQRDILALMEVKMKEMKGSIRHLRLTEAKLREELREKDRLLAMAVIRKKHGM
T2 sequence (O75874 whole entry): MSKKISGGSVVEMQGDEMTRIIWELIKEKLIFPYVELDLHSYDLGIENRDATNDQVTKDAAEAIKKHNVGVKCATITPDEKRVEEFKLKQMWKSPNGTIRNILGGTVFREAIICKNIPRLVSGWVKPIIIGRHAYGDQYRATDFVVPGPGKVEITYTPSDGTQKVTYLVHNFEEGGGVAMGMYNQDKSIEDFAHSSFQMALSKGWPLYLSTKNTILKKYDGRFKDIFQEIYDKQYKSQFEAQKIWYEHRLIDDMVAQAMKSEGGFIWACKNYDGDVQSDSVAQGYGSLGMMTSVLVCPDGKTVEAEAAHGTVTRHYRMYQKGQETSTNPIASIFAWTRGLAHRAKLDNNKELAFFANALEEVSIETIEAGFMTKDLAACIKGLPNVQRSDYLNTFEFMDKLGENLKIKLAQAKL

SMILES: COC(=O)/C=C/C(=O)OC [DMF, dimethyl fumarate]
IA-alkyne reactivity of PKCθ C14 and C17 (PKCθ C14/C17; 50 μM, 4 h): blocked | R value (DMSO/DMF) (PKCθ C14/C17; DMF 10 μM 4h): 1.62 | R value (DMSO/DMF) (PKCθ C14/C17; DMF 25 μM 4h): 3.29 | R value (DMSO/DMF) (PKCθ C14/C17; DMF 50 μM 2h): 2.92 | R value (DMSO/DMF) (PKCθ C14/C17; DMF 50 μM 4h): 4.21

isoTOP-ABPP reactivity profile (ratio) 2_200 μM_in-situ_231 (THAP11 C48 (Q96EK4)): 7.9
SMILES: COc1ccc2c(c1)CCCN2C(=O)CCl [compound 2]

isoTOP-ABPP reactivity profile (ratio) 4_100 μM_in-situ_231 (IMPACT C195 (Q9P2X3)): 20.0
SMILES: COc1ccc(C2CC(c3cccs3)=NN2C(=O)CCl)cc1 (centres unmarked) [compound 4]

SMILES: O=C(CCl)N1CCC(C(O)(c2ccccc2)c2ccccc2)CC1 [compound 20]
catalytic activity of WT-IDH1 (NADP+ to NADPH) (IDH1): blocked in a concentration-dependent manner
